Values joined by “and” are separate entries in the source; they are usually repeats but may differ in a detail not shown here. Equal values may be shown once. Inconclusive results and toxic doses are left out. Cut-off read from the data, not from the text of the source: active = T/C of 150% or more; inactive = T/C below 125%.
Test system: L1210 leukemia ip in BDF1 mice, survival T/C
Test: NCI In Vivo Anticancer Drug Screen. Data for tumor model L1210 Leukemia (intraperitoneal) in B6D2F1 (BDF1) mice
Conditions: endpoint: mean survival time, higher = longer survival
Outline: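 Transplantable tumor model; survival measured in treated vs vehicle control mice. Value = treated/control.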

[1] = dose: 50.0 mg/kg/injection, schedule: Q01DX009 (ip), vehicle: Klucel (hydroxypropylcellulose) (HPC)
[2] = dose: 100.0 mg/kg/injection, schedule: Q01DX009 (ip), vehicle: Klucel (hydroxypropylcellulose) (HPC)
[3] = dose: 100.0 mg/kg/injection, schedule: Q01DX001 (ip), vehicle: saline
[4] = dose: 200.0 mg/kg/injection, schedule: Q01DX001 (ip), vehicle: saline
[5] = dose: 400.0 mg/kg/injection, schedule: Q01DX001 (ip), vehicle: saline
[6] = dose: 100.0 mg/kg/injection, schedule: Q04DX002 (ip), vehicle: gum acacia
[7] = dose: 200.0 mg/kg/injection, schedule: Q04DX002 (ip), vehicle: gum acacia
[8] = dose: 200.0 mg/kg/injection, schedule: Q01DX009 (ip), vehicle: Klucel (hydroxypropylcellulose) (HPC)
[9] = dose: 100.0 mg/kg/injection, schedule: Q04DX003 (ip), vehicle: saline
[10] = dose: 200.0 mg/kg/injection, schedule: Q04DX003 (ip), vehicle: saline
[11] = dose: 400.0 mg/kg/injection, schedule: Q04DX003 (ip), vehicle: saline

Measured: T/C

NNc1ccc2ccccc2n1
inactive: dose: 5.0 mg/kg/injection, schedule: Q01DX009 (ip), vehicle: saline 95 % of control | dose: 5.0 mg/kg/injection, schedule: Q04DX003 (ip), vehicle: saline with Tween-80 113 % of control | dose: 10.0 mg/kg/injection, schedule: Q01DX009 (ip), vehicle: saline 97 % of control | dose: 10.0 mg/kg/injection, schedule: Q04DX003 (ip), vehicle: saline with Tween-80 101 % of control | dose: 20.0 mg/kg/injection, schedule: Q01DX009 (ip), vehicle: saline 97 % of control | dose: 20.0 mg/kg/injection, schedule: Q04DX003 (ip), vehicle: saline with Tween-80 101 % of control

N#C/C(=C\C1CC(Br)CC(Br)C1O)C1CCC([N+](=O)[O-])CC1 (centres undefined)
inactive: dose: 100.0 mg/kg/injection, schedule: Q04DX002 (ip), vehicle: saline with Tween-80 90 % of control | dose: 200.0 mg/kg/injection, schedule: Q04DX002 (ip), vehicle: saline with Tween-80 90 % of control | dose: 400.0 mg/kg/injection, schedule: Q04DX002 (ip), vehicle: saline with Tween-80 93 % of control

O=c1[nH]c2ccccc2c(C(Cl)(Cl)Cl)c1Cl
inactive: dose: 12.5 mg/kg/injection, schedule: Q01DX009 (ip), vehicle: Klucel (hydroxypropylcellulose) (HPC) 93 % of control | dose: 25.0 mg/kg/injection, schedule: Q01DX009 (ip), vehicle: Klucel (hydroxypropylcellulose) (HPC) 90 % of control | [1] 100 % of control and 108 % of control | [2] 93 % of control

O=Nc1c(S(=O)(=O)O)cc2cc(S(=O)(=O)O)cc(O)c2c1O.[Cu+2]
inactive: dose: 0.16 mg/kg/injection, schedule: Q01DX009 (ip), vehicle: saline 95 % of control | dose: 0.31 mg/kg/injection, schedule: Q01DX009 (ip), vehicle: saline 103 % of control | dose: 0.63 mg/kg/injection, schedule: Q01DX009 (ip), vehicle: saline 92 % of control | dose: 1.25 mg/kg/injection, schedule: Q04DX003 (ip), vehicle: saline 102 % of control | dose: 2.5 mg/kg/injection, schedule: Q04DX003 (ip), vehicle: saline 102 % of control | dose: 5.0 mg/kg/injection, schedule: Q04DX003 (ip), vehicle: saline 94 % of control

NC(=O)C(=O)c1ccco1
inactive: [3] 92 % of control | [4] 101 % of control | [5] 108 % of control

O=C(Nc1cccc2ccccc12)c1ccc(C(=O)Nc2cccc3ccccc23)c(C(=O)O)c1
inactive: dose: 50.0 mg/kg/injection, schedule: Q04DX002 (ip), vehicle: gum acacia 94 % of control | [6] 90 % of control | [7] 94 % of control

O=[N+]([O-])c1cc2c3ccccc3c(F)cc2c2ccccc12
inactive: [2] 98 % of control | dose: 100.0 mg/kg/injection, schedule: Q04DX003 (ip), vehicle: Klucel (hydroxypropylcellulose) (HPC) 96 % of control | [8] 98 % of control | dose: 200.0 mg/kg/injection, schedule: Q04DX003 (ip), vehicle: Klucel (hydroxypropylcellulose) (HPC) 91 % of control | dose: 400.0 mg/kg/injection, schedule: Q01DX009 (ip), vehicle: Klucel (hydroxypropylcellulose) (HPC) 98 % of control | dose: 400.0 mg/kg/injection, schedule: Q04DX003 (ip), vehicle: Klucel (hydroxypropylcellulose) (HPC) 101 % of control

CC(=Nc1ccc(Cl)cc1)Nc1ccc(Cl)cc1
inactive: dose: 62.5 mg/kg/injection, schedule: Q01DX009 (ip), vehicle: Klucel (hydroxypropylcellulose) (HPC) 92 % of control | dose: 125.0 mg/kg/injection, schedule: Q01DX009 (ip), vehicle: Klucel (hydroxypropylcellulose) (HPC) 96 % of control | dose: 250.0 mg/kg/injection, schedule: Q01DX009 (ip), vehicle: Klucel (hydroxypropylcellulose) (HPC) 100 % of control

CC(C)CCCC(C)CCCC(C)CCCC(C)CC(=O)O (centres undefined)
inactive: dose: 100.0 mg/kg/injection, schedule: Q01DX001 (ip), vehicle: olive oil, sesame oil, peanut oil 103 % of control | dose: 200.0 mg/kg/injection, schedule: Q01DX001 (ip), vehicle: olive oil, sesame oil, peanut oil 101 % of control | dose: 400.0 mg/kg/injection, schedule: Q01DX001 (ip), vehicle: olive oil, sesame oil, peanut oil 91 % of control

Cc1ccccc1NC(=S)Nc1ccccc1
inactive: [6] 96 % of control | [7] 96 % of control | dose: 400.0 mg/kg/injection, schedule: Q04DX002 (ip), vehicle: gum acacia 89 % of control

C1=CC2C3C=CC(CC3)C2CC1 (centres undefined)
inactive: dose: 100.0 mg/kg/injection, schedule: Q04DX003 (ip), vehicle: saline with Tween-80 106 % of control | dose: 200.0 mg/kg/injection, schedule: Q04DX003 (ip), vehicle: saline with Tween-80 97 % of control | dose: 400.0 mg/kg/injection, schedule: Q04DX003 (ip), vehicle: saline with Tween-80 87 % of control

O=C(OCCBr)c1ccc([N+](=O)[O-])cc1
inactive: [1] 100 % of control | [2] 106 % of control | [8] 97 % of control

O=[N+]([O-])c1ccccc1CC1c2ccccc2-c2ccccc21
inactive: [9] 96 % of control | [10] 94 % of control | [11] 93 % of control

CCC(=O)P(=O)(OC)OC
inactive: [9] 102 % of control | [10] 102 % of control | [11] 95 % of control

CONCC(=O)c1ccc(SC)cc1
inactive: [3] 106 % of control | [4] 97 % of control | [5] 100 % of control

O=c1[nH]c2sccc2c(=O)n1O
inactive: dose: 100.0 mg/kg/injection, schedule: Q01DX001 (ip), vehicle: Klucel (hydroxypropylcellulose) (HPC) 106 % of control | dose: 200.0 mg/kg/injection, schedule: Q01DX001 (ip), vehicle: Klucel (hydroxypropylcellulose) (HPC) 97 % of control | dose: 400.0 mg/kg/injection, schedule: Q01DX001 (ip), vehicle: Klucel (hydroxypropylcellulose) (HPC) 97 % of control

O=C1CCN(S(=O)(=O)c2ccccc2)c2ccccc21
inactive: [3] 94 % of control | [4] 94 % of control | [5] 92 % of control

C[C@@H]1C[C@@]2(C)[C@@H](CC[C@@H]3[C@@H]2CC[C@]2(C)[C@@H](O)CC[C@@H]32)CC1=O
inactive: dose: 100.0 mg/kg/injection, schedule: Q01DX Z (sc), vehicle: steriod suspending solution 105 % of control | dose: 200.0 mg/kg/injection, schedule: Q01DX Z (sc), vehicle: steriod suspending solution 108 % of control | dose: 400.0 mg/kg/injection, schedule: Q01DX Z (sc), vehicle: steriod suspending solution 105 % of control | dose: 800.0 mg/kg/injection, schedule: Q01DX Z (sc), vehicle: steriod suspending solution 105 % of control

COc1ccc(Oc2cc(OC)ccc2Oc2ccccc2)cc1
inactive: dose: 100.0 mg/kg/injection, schedule: Q01DX001 (ip), vehicle: carboxymethylcellulose (CMC) 97 % of control | dose: 200.0 mg/kg/injection, schedule: Q01DX001 (ip), vehicle: carboxymethylcellulose (CMC) 105 % of control | dose: 400.0 mg/kg/injection, schedule: Q01DX001 (ip), vehicle: carboxymethylcellulose (CMC) 110 % of control

N#C/C(=C1C=C(Br)/C(=N\O)C=C\1Cl)c1ccc(Cl)cc1
inactive: dose: 100.0 mg/kg/injection, schedule: Q01DX009 (ip), vehicle: acetone 95 % of control | dose: 100.0 mg/kg/injection, schedule: Q04DX003 (ip), vehicle: acetone 100 % of control | dose: 200.0 mg/kg/injection, schedule: Q04DX003 (ip), vehicle: acetone 100 % of control | dose: 400.0 mg/kg/injection, schedule: Q04DX003 (ip), vehicle: acetone 94 % of control

Nc1nc(Nc2ccc(NC=O)cc2)c(NC=O)c(=O)[nH]1
inactive: dose: 50.0 mg/kg/injection, schedule: Q01DX001 (ip), vehicle: saline 89 % of control | [4] 86 % of control

Source: PubChem BioAssay AID248 (DTP/NCI, 2004)
